Results taken from patent US8846616B1, “Alpha-melanocyte stimulating hormone as topical anti-inflammatory agent for the treatment of allergic contact dermatitis and eczema” (Florida Agricultural and Mechanical University, priority 2009, dated 2014).

How the values were obtained:
[1] = system: CD3; experiment: Immunohistochemistry of ear tissue in the ACD model, CD3; assay type: in vivo, mouse; settings: ear tissue after three days of treatment, 96 hours after DNFB challenge
Procedure: (§1) Mice examined in the allergic contact dermatitis model were euthanized 96 hours after challenge with DNFB, and the left and right ears were excised. Ears were fixed in alcoholic formalin and embedded in paraffin. Cross-sections were cut through the center of each ear anterior to posterior. Ears were stained using hematoxylin and eosin (H&E). Additionally, the inflammatory markers CD3 and ICAM-1 were stained using rat anti-mouse primary antibodies (0.2 μg/mL and 1.0 μg/mL, respectively) and detected with a mouse-absorbed goat anti-rat'horseradish peroxidase-conjugated secondary antibody (1.0 μg/mL). Endogenous peroxidase activity was blocked with H2O2 before antibody incubations and DAB exposure, and then the marker-stained slides were counterstained with Mayer's hematoxylin blued with dilute ammonium hydroxide. The sections of each ear were photographed at representative sites using a light microscope (Zeiss Axio Imager; Zeiss, Thornwood, N.Y.) with an attached digital camera (Axiocam MRc, Zeiss, Thornwood, N.Y.) operated by Zeiss AxioVision 4.6.
To assay inflammation, ear tissue of the mice was excised 96 hours after challenge with DNFB, fixed in formalin, and embedded in paraffin. […]

[2] = In vitro skin retention, Franz diffusion cells; assay type: in vitro ADME, rat; settings: after 24 hours
Procedure: (§2) In order to determine if the penetration and retention of full-length α-MSH could be augmented in vitro by formulations containing compounds known to improve this process, we conducted in vitro studies with 36 different formulations of α-MSH. The α-MSH powder was weighed directly into a 2 mL graduated glass vial and dissolved in water. Measured volumes of the respective vehicles were dissolved in the solution to achieve the desired percentage (w/v) of α-MSH. Hairless rats were euthanized, skin from the dorsal surface was excised, and the adherent fat and subcutaneous tissue were removed. The skin was mounted on Franz diffusion cells with the stratum corneum facing the donor compartment. The volume of the donor and receptor cells was 2.0 and 5.0 mL, respectively.
For the retention studies, the donor cell was removed, and the excess formulation was removed from the surface of the skin by gently wiping with a cotton swab dipped in 50% ethanol. […] The α-MSH content of each sample was analyzed by HPLC. […]
(§3) Analysis of α-MSH in permeation and retention studies conducted in vitro with skin from hairless rats was performed using an HPLC system (Waters Corp, Milford, Mass.) operated by Millennium software. […] The α-MSH content in the samples was determined using the UV detector set at 230 nm, and the detection limit was determined to be 0.1 μg/mL. […]

[3] = In vitro skin permeation, Franz diffusion cells; assay type: in vitro ADME, rat
Procedure: as §2
Permeation of α-MSH in these formulations was measured by applying the formulation (200 μL) on the skin surface in the donor compartment, sealed with aluminum foil and Parafilm®. […] After 24 hours, the receptor compartment was sampled, and α-MSH content was analyzed by HPLC.
as §3

[4] = system: DNFB-induced allergic contact dermatitis; experiment: Murine allergic contact dermatitis (ACD) model, ear swelling by micrometer; assay type: in vivo, mouse; settings: concentration of 0.25% α-MSH versus 0.125% and 0.5%; topical formulations including MF21
Procedure: Allergic contact dermatitis was induced as previously described (8, 16). Mice were sensitized on day 0 by applying 25 μL of 0.5% DNFB in 4:1 acetone/olive oil on the shaved abdomen. Mice were challenged on day 5 with a single topical application of 15 μL of 0.2% DNFB in 4:1 acetone/olive oil on the right ear in order to induce an ACD response. The left ears were treated with a single topical application of the matched vehicle alone (4:1 acetone/olive oil) to serve as an internal control for the experiments. Beginning on day 6 (24 hours after challenge), the right ears were treated with 15 μL of topically applied α-MSH formulations or 0.5 mM dexamethasone solution and the left ears of the same mice were topically applied with the corresponding matched vehicle. […] Commercial ointment products were topically applied 20 μL per treatment as measured with a syringe and spread evenly with an applicator stick. […] The ACD response was determined by the degree of ear swelling of the hapten-exposed ear (right) compared to that of the matched vehicle-treated contra-lateral ear (left) before DNFB challenge and at 24, 48, 72, and 96 hours after challenge, as measured with a micrometer (7309, Mitutoyo, Tokyo, Japan). Percent change was determined based on 100% thickness 24 hours after challenge. […]

[5] = system: DNFB-induced allergic contact dermatitis; experiment: Histology (H&E) of ear tissue in the ACD model; assay type: in vivo, mouse; set-up: key to score of relative inflammation (infiltrate grade): (1+) representing few lymphocytes and eosinophils above baseline levels that are scattered around blood vessels; (2+) representing increased perivascular infiltrate; (3+) representing intense perivascular infiltrate extending slightly into the interstitial collagen between vessels within the papillary dermis; (4+) representing intense diffuse lymphocytic infiltrate throughout the papillary dermis; settings: 96 hours after DNFB challenge
Procedure: as §1
Mice used in the allergic contact dermatitis model were euthanized 96 hours after challenge with DNFB (72 hours after initiation of topical treatment), and the left and right ears were excised, fixed with formalin, and embedded in paraffin. Cross-sections of the middle of each ear (same position) were cut at a thickness of 4 μm and stained with hematoxylin and eosin (H&E). […] Microscopic measurements of thickness were made at 5 equidistant points on each of the photographed H&E sections. All values are expressed as mean±SD. All differences were statistically significant as determined by ANOVA for pair-wise comparison (P<0.05).
Overall, the allergic contact dermatitis hypersensitivity response developed intense perivascular lymphoid infiltrate extending into the papillary dermis with little or no change in the epidermis at 96 hours following challenge. In all samples generally >90% of the inflammatory infiltrate consisted of lymphocytes and <10% consisted of eosinophils. […]

For “Ac-Ser-Tyr-Ser-Met-Glu-His-Phe-Arg-Trp-Gly-Lys-Pro-Val [α-MSH]”, the “expression of the CD3 marker antigen in the lymphocytic infiltrate” value [1] was “greatly reduced”, the “α-MSH retained per gram of skin (epidermis)” value ([2]; in aqueous TRANSCUTOL, LABRASOL, or propylene glycol) was 0.4-0.5 mg per gram of skin and the “α-MSH retained per gram of skin (epidermis)” value ([2]; in aqueous ethanol) was 1.8 mg per gram of skin. The “permeation through the skin barrier” value ([3]; aqueous α-MSH in the absence of TRANSCUTOL and NMP, after 24 hours) was “did not permeate through the skin barrier at all”, the “α-MSH penetrated through 1.0 cm^2 of skin” value ([3]; vehicles ethanol, propylene glycol, TRANSCUTOL and LABRASOL (all four), hairless rat skin in vitro) was 6.5 to 7.0 µg and the “reduction in ear swelling, α-MSH dose response” value [4] was “optimal reduction in ear swelling”. The “score of relative inflammation (infiltrate grade)” value [5] was 1+, the “inflammatory (lymphoid) infiltrate in H&E sections” value ([5]; three days of treatment twice per day) was “relatively low retention of inflammatory infiltrate” and the “ear swelling in H&E sections” value ([5]; three days of treatment twice per day, FIG. 4) was “complete alleviation of swelling down to slightly below baseline thickness”.
